Source: ChEMBL document CHEMBL3044945, “Synthesis of 1,3,5-trisubstituted pyrazoline nucleus containing compounds and screening for antimicrobial activity” (2012)
In brackets after ≈: the same amount, converted by molar mass.

Columns and labels:
Format in all cases: functional
Pseudomonas aeruginosa [1] = experiment: Antibacterial activity against Pseudomonas aeruginosa MTCC 424 after 24 to 48 hr by tube dilution method
Bacillus subtilis [2] = experiment: Antibacterial activity against Bacillus subtilis MTCC 441 at 250 ug/ml after 48 hr by cup-plate method; conditions: MTCC 441, 48 h, read-out: DIZ
Escherichia coli [3] = experiment: Antibacterial activity against Escherichia coli MTCC 1573 at 750 ug/ml after 48 hr by cup-plate method; conditions: MTCC 1573, 48 h, read-out: DIZ
Aspergillus niger [4] = experiment: Antifungal activity against Aspergillus niger MTCC 2546 after 24 to 48 hr by tube dilution method
Micrococcus luteus [5] = experiment: Antibacterial activity against Micrococcus luteus MTCC 1538 at 1250 ug/ml after 48 hr by cup-plate method; conditions: MTCC 1538, 48 h, read-out: DIZ
Pseudomonas aeruginosa [6] = experiment: Antibacterial activity against Pseudomonas aeruginosa MTCC 424 at 500 ug/ml after 48 hr by cup-plate method; conditions: MTCC 424, 48 h, read-out: DIZ
Penicillium chrysogenum [7] = experiment: Antifungal activity against Penicillium chrysogenum MTCC 161 at 1250 ug/ml after 48 hr by cup-plate method; conditions: MTCC 161, 48 h, read-out: DIZ
Pseudomonas aeruginosa [8] = experiment: Antibacterial activity against Pseudomonas aeruginosa MTCC 424 at 750 ug/ml after 48 hr by cup-plate method; conditions: MTCC 424, 48 h, read-out: DIZ
Pseudomonas fluorescens [9] = experiment: Antibacterial activity against Pseudomonas fluorescens MTCC 2421 at 500 ug/ml after 48 hr by cup-plate method; conditions: MTCC 2421, 48 h, read-out: DIZ
Penicillium chrysogenum [10] = experiment: Antifungal activity against Penicillium chrysogenum MTCC 161 at 750 ug/ml after 48 hr by cup-plate method; conditions: MTCC 161, 48 h, read-out: DIZ
Staphylococcus aureus [11] = experiment: Antibacterial activity against Staphylococcus aureus MTCC 1430 after 24 to 48 hr by tube dilution method
Pseudomonas fluorescens [12] = experiment: Antibacterial activity against Pseudomonas fluorescens MTCC 2421 at 250 ug/ml after 48 hr by cup-plate method; conditions: MTCC 2421, 48 h, read-out: DIZ
Bacillus pumilus [13] = experiment: Antibacterial activity against Bacillus pumilus MTCC 1456 at 100 ug/ml after 48 hr by cup-plate method; conditions: MTCC 1456, 48 h, read-out: DIZ
Staphylococcus aureus [14] = experiment: Antibacterial activity against Staphylococcus aureus MTCC 1430 at 750 ug/ml after 48 hr by cup-plate method; conditions: MTCC 1430, 48 h, read-out: DIZ
Bacillus pumilus [15] = experiment: Antibacterial activity against Bacillus pumilus MTCC 1456 at 1000 ug/ml after 48 hr by cup-plate method; conditions: MTCC 1456, 48 h, read-out: DIZ
Micrococcus luteus [16] = experiment: Antibacterial activity against Micrococcus luteus MTCC 1538 at 750 ug/ml after 48 hr by cup-plate method; conditions: MTCC 1538, 48 h, read-out: DIZ
Micrococcus luteus [17] = experiment: Antibacterial activity against Micrococcus luteus MTCC 1538 after 24 to 48 hr by tube dilution method
Escherichia coli [18] = experiment: Antibacterial activity against Escherichia coli MTCC 1573 at 1000 ug/ml after 48 hr by cup-plate method; conditions: MTCC 1573, 48 h, read-out: DIZ
Escherichia coli [19] = experiment: Antibacterial activity against Escherichia coli MTCC 1573 after 24 to 48 hr by tube dilution method
Aspergillus niger [20] = experiment: Antifungal activity against Aspergillus niger MTCC 2546 at 250 ug/ml after 48 hr by cup-plate method; conditions: MTCC 2546, 48 h, read-out: DIZ
Pseudomonas fluorescens [21] = experiment: Antibacterial activity against Pseudomonas fluorescens MTCC 2421 at 1250 ug/ml after 48 hr by cup-plate method; conditions: MTCC 2421, 48 h, read-out: DIZ
Bacillus subtilis [22] = experiment: Antibacterial activity against Bacillus subtilis MTCC 441 at 1000 ug/ml after 48 hr by cup-plate method; conditions: MTCC 441, 48 h, read-out: DIZ
Bacillus pumilus [23] = experiment: Antibacterial activity against Bacillus pumilus MTCC 1456 at 750 ug/ml after 48 hr by cup-plate method; conditions: MTCC 1456, 48 h, read-out: DIZ
Pseudomonas fluorescens [24] = experiment: Antibacterial activity against Pseudomonas fluorescens MTCC 2421 after 24 to 48 hr by tube dilution method
Pseudomonas fluorescens [25] = experiment: Antibacterial activity against Pseudomonas fluorescens MTCC 2421 at 100 ug/ml after 48 hr by cup-plate method; conditions: MTCC 2421, 48 h, read-out: DIZ
Staphylococcus aureus [26] = experiment: Antibacterial activity against Staphylococcus aureus MTCC 1430 at 250 ug/ml after 48 hr by cup-plate method; conditions: MTCC 1430, 48 h, read-out: DIZ
Staphylococcus aureus [27] = experiment: Antibacterial activity against Staphylococcus aureus MTCC 1430 at 1000 ug/ml after 48 hr by cup-plate method; conditions: MTCC 1430, 48 h, read-out: DIZ
Pseudomonas fluorescens [28] = experiment: Antibacterial activity against Pseudomonas fluorescens MTCC 2421 at 1000 ug/ml after 48 hr by cup-plate method; conditions: MTCC 2421, 48 h, read-out: DIZ
Bacillus subtilis [29] = experiment: Antibacterial activity against Bacillus subtilis MTCC 441 at 750 ug/ml after 48 hr by cup-plate method; conditions: MTCC 441, 48 h, read-out: DIZ
Escherichia coli [30] = experiment: Antibacterial activity against Escherichia coli MTCC 1573 at 100 ug/ml after 48 hr by cup-plate method; conditions: MTCC 1573, 48 h, read-out: DIZ
Penicillium chrysogenum [31] = experiment: Antifungal activity against Penicillium chrysogenum MTCC 161 at 500 ug/ml after 48 hr by cup-plate method; conditions: MTCC 161, 48 h, read-out: DIZ
Bacillus pumilus [32] = experiment: Antibacterial activity against Bacillus pumilus MTCC 1456 at 500 ug/ml after 48 hr by cup-plate method; conditions: MTCC 1456, 48 h, read-out: DIZ
Penicillium chrysogenum [33] = experiment: Antifungal activity against Penicillium chrysogenum MTCC 161 at 100 ug/ml after 48 hr by cup-plate method; conditions: MTCC 161, 48 h, read-out: DIZ
Pseudomonas fluorescens [34] = experiment: Antibacterial activity against Pseudomonas fluorescens MTCC 2421 at 750 ug/ml after 48 hr by cup-plate method; conditions: MTCC 2421, 48 h, read-out: DIZ
Bacillus pumilus [35] = experiment: Antibacterial activity against Bacillus pumilus MTCC 1456 after 24 to 48 hr by tube dilution method
Micrococcus luteus [36] = experiment: Antibacterial activity against Micrococcus luteus MTCC 1538 at 1000 ug/ml after 48 hr by cup-plate method; conditions: MTCC 1538, 48 h, read-out: DIZ
Escherichia coli [37] = experiment: Antibacterial activity against Escherichia coli MTCC 1573 at 250 ug/ml after 48 hr by cup-plate method; conditions: MTCC 1573, 48 h, read-out: DIZ
Aspergillus niger [38] = experiment: Antifungal activity against Aspergillus niger MTCC 2546 at 1000 ug/ml after 48 hr by cup-plate method; conditions: MTCC 2546, 48 h, read-out: DIZ
Aspergillus niger [39] = experiment: Antifungal activity against Aspergillus niger MTCC 2546 at 500 ug/ml after 48 hr by cup-plate method; conditions: MTCC 2546, 48 h, read-out: DIZ
Penicillium chrysogenum [40] = experiment: Antifungal activity against Penicillium chrysogenum MTCC 161 after 24 to 48 hr by tube dilution method
Pseudomonas aeruginosa [41] = experiment: Antibacterial activity against Pseudomonas aeruginosa MTCC 424 at 100 ug/ml after 48 hr by cup-plate method; conditions: MTCC 424, 48 h, read-out: DIZ
Bacillus subtilis [42] = experiment: Antibacterial activity against Bacillus subtilis MTCC 441 at 1250 ug/ml after 48 hr by cup-plate method; conditions: MTCC 441, 48 h, read-out: DIZ
Staphylococcus aureus [43] = experiment: Antibacterial activity against Staphylococcus aureus MTCC 1430 at 500 ug/ml after 48 hr by cup-plate method; conditions: MTCC 1430, 48 h, read-out: DIZ
Pseudomonas aeruginosa [44] = experiment: Antibacterial activity against Pseudomonas aeruginosa MTCC 424 at 250 ug/ml after 48 hr by cup-plate method; conditions: MTCC 424, 48 h, read-out: DIZ
Bacillus pumilus [45] = experiment: Antibacterial activity against Bacillus pumilus MTCC 1456 at 250 ug/ml after 48 hr by cup-plate method; conditions: MTCC 1456, 48 h, read-out: DIZ

MIC (Pseudomonas aeruginosa [1]): 150 µg/mL (≈ 342 µM)
MIC (Aspergillus niger [4]): 30 µg/mL (≈ 68.4 µM)
MIC (Staphylococcus aureus [11]): 50 µg/mL (≈ 114 µM)
MIC (Micrococcus luteus [17]): 30 µg/mL (≈ 68.4 µM)
MIC (Escherichia coli [19]): 30 µg/mL (≈ 68.4 µM)
MIC (Pseudomonas fluorescens [24]): 30 µg/mL (≈ 68.4 µM)
MIC (Bacillus pumilus [35]): 30 µg/mL (≈ 68.4 µM)
MIC (Penicillium chrysogenum [40]): 30 µg/mL (≈ 68.4 µM)
SMILES: O=[N+]([O-])c1ccc(C2CC(c3cccc4ccccc34)=NN2c2ccccc2[N+](=O)[O-])cc1 (stereo not given)
zone of inhibition at 250 µg/mL (Bacillus subtilis [2]): 13 mm
zone of inhibition at 750 µg/mL (Escherichia coli [3]): 13 mm
zone of inhibition at 1250 µg/mL (Micrococcus luteus [5]): 17 mm
zone of inhibition at 500 µg/mL (Pseudomonas aeruginosa [6]): 15 mm
zone of inhibition at 1250 µg/mL (Penicillium chrysogenum [7]): 26 mm
zone of inhibition at 750 µg/mL (Pseudomonas aeruginosa [8]): 16 mm
zone of inhibition at 500 µg/mL (Pseudomonas fluorescens [9]): 13 mm
zone of inhibition at 750 µg/mL (Penicillium chrysogenum [10]): 20 mm
zone of inhibition at 250 µg/mL (Pseudomonas fluorescens [12]): 11 mm
zone of inhibition at 100 µg/mL (Bacillus pumilus [13]): 10 mm
zone of inhibition at 750 µg/mL (Staphylococcus aureus [14]): 12 mm
zone of inhibition at 1000 µg/mL (Bacillus pumilus [15]): 23 mm
zone of inhibition at 750 µg/mL (Micrococcus luteus [16]): 13 mm
zone of inhibition at 1000 µg/mL (Escherichia coli [18]): 17 mm
zone of inhibition at 250 µg/mL (Aspergillus niger [20]): 11 mm
zone of inhibition at 1250 µg/mL (Pseudomonas fluorescens [21]): 24 mm
zone of inhibition at 1000 µg/mL (Bacillus subtilis [22]): 16 mm
zone of inhibition at 750 µg/mL (Bacillus pumilus [23]): 18 mm
zone of inhibition at 100 µg/mL (Pseudomonas fluorescens [25]): 10 mm
zone of inhibition at 250 µg/mL (Staphylococcus aureus [26]): 9 mm
zone of inhibition at 1000 µg/mL (Staphylococcus aureus [27]): 13 mm
zone of inhibition at 1000 µg/mL (Pseudomonas fluorescens [28]): 21 mm
zone of inhibition at 750 µg/mL (Bacillus subtilis [29]): 15 mm
zone of inhibition at 100 µg/mL (Escherichia coli [30]): 9 mm
zone of inhibition at 500 µg/mL (Penicillium chrysogenum [31]): 15 mm
zone of inhibition at 500 µg/mL (Bacillus pumilus [32]): 12 mm
zone of inhibition at 100 µg/mL (Penicillium chrysogenum [33]): 13 mm
zone of inhibition at 750 µg/mL (Pseudomonas fluorescens [34]): 18 mm
zone of inhibition at 1000 µg/mL (Micrococcus luteus [36]): 15 mm
zone of inhibition at 250 µg/mL (Escherichia coli [37]): 10 mm
zone of inhibition at 1000 µg/mL (Aspergillus niger [38]): 23 mm
zone of inhibition at 500 µg/mL (Aspergillus niger [39]): 12 mm
zone of inhibition at 100 µg/mL (Pseudomonas aeruginosa [41]): 13 mm
zone of inhibition at 1250 µg/mL (Bacillus subtilis [42]): 17 mm
zone of inhibition at 500 µg/mL (Staphylococcus aureus [43]): 10 mm
zone of inhibition at 250 µg/mL (Pseudomonas aeruginosa [44]): 14 mm
zone of inhibition at 250 µg/mL (Bacillus pumilus [45]): 11 mm
